Tests used:
[1] = Mouse Fast PK/BBB (plasma and brain concentration); assay type: in vivo, Male C57bl/6j mice; settings: 1 hr after oral dosing; 30 mg/kg or 20 mg/kg; N=3
Text: (§1) Male Sprague Dawley rats were ordered from Charles River (225-250 gm upon arrival). They were fed standard chow diet (Purina 5001) and housed 2 per cage. Male C57bl/6j mice were ordered from Charles River at 22-25 g and housed 3 per cage. They were fed standard chow (Purina 5001). All animals were housed in a temperature-controlled room with 12-hour light/dark cycle. Animals were given food and water ad libitum, except as noted.
(§2) Test compounds were formulated in 10% PEG400 and 10% solutol. Test compounds were administered by oral gavage (5 ml kg^−1).
Male C57bl/6j mice were dosed with test compounds at 30 mg/kg. Plasma was collected via retro-orbital bleeding at 1 hr and 4 hrs after dosing. […] Wet brain weight was recorded before freezing. Brains were homogenized in saline and sent for analysis for determination of concentration of test compound.
Table BIO-3 below present results for representative compounds of the present invention, tested according to the procedure as described above. Each compound was tested in three animals (N=3) and administered PA at 20 mg/kg

[2] = biological target: T1, Human CB2R (Cannabinoid receptor 2) (Homo sapiens, UniProt P34972); experiment: CB-2 in vitro cAMP (HTRF) functional assay; assay type: cell-based; settings: mean where tested more than once
T1 construct: host or cells: HEK-293
T1 sequence (P34972 whole entry): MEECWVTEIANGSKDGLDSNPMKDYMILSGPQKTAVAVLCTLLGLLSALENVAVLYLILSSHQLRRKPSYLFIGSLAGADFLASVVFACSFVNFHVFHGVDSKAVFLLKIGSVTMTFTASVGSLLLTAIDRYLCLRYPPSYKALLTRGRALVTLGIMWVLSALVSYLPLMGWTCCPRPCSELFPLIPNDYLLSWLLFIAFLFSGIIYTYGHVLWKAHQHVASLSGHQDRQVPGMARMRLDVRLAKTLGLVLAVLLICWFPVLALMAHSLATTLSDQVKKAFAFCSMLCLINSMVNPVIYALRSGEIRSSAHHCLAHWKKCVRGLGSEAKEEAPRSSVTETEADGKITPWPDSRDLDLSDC
Text: CB1 and CB2 receptors are Gi-coupled GPCR. Activation of CB1 and CB2 receptors results in a decrease in cAMP production. An inverse agonist of the CB1 or CB2 receptor results in the opposite effect, an increase of cAMP production. The principle of this assay is based on HTRF® technology (Homogeneous Time-Resolved Fluorescence). The method is a competitive immunoassay between native cAMP produced by cells and the cAMP labeled with the fluorophore d2. The tracer binding is quantified by a Mab anti-cAMP labeled with Eu3+ TBP-NHS Cryptate (supplied as part of the assay kit). The specific signal (i.e. energy transfer) is inversely proportional to the concentration of cAMP in the standard or sample.
Human CB1R (Cannabinoid receptor 1) was stably transfected in HEK-293 cells (DiscoveRx, cat: 93-0200C1). Human CB2R (Cannabinoid receptor 2) was stably transfected in HEK-293 cells (DiscoveRx, cat: 93-0201C1). Cell cultures were maintained in media: DMEM (Invitrogen Cat#12430-054) supplemented with 10% HI FBS (Invitrogen Cat#16140-071), 1% L-glutamine (Invitrogen Cat#25030-081), 0.2 mg/ml Hygromycin B (Invitrogen Cat#10687-010), 600 μg/mL G418 (Invitrogen Cat#10131-035), and 1× Penn/Strep (Invitrogen 15140-122). After cell expansion, aliquots were cryo-stored in media containing 5% DMSO (Pierce Cat#20684).
One day prior to experiments media was warmed to 37° C. and the cryo-stored cells were thawed in a 37° C. water bath. The cells were then added to media (10× volume) and the mixture was centrifuged at 1000 RPM for 5 min. The supernate was removed and the cells were re-suspended in media. A sample of the cell suspension was evaluated on a Cedex XS automated cell counter (Innovatis Systems) to determine viable cells/ml. Additional media was added to the cells to achieve a final cell density of 4E5 cells/mL. The cells were then plated into 384 well PDL white solid bottom plates (Greiner, Cat#781945) at 20 μL per well using a Multidrop (Thermo Scientific). Cells were removed from Row P (location of cAMP standards). Two columns of cells were plated into a clear bottom 384 well PDL coated plate (Greiner, Cat#781944) to view confluence the day of the assay. The cell plates were lidded and stored for 15 minutes in a hood, then transferred to an incubator (37° C., 5% CO2, 95% humidity) overnight.
DMSO was added to all wells of 384 well V bottom polystyrene plate (Greiner, Cat#781280) except to columns 1 and 13, rows O and P and wells M13-M23 and N13-N23. Test compounds (60 μL, 10 mM) were added to Column 1 and 13 (A1 through N1 and A13 through L13). Test compounds were serially diluted 1/3 by transferring and mixing 20 μl sample with 40 μL DMSO.
DMSO (40 μL) was added to wells of 384 well V bottom polystyrene plate: O2 through O11, M14 through M23, N14 through N23, and O14 through O23. AM630 (also known as [6-iodo-2-methyl-1-[2-(4-morpholinyl)ethyl]-1H-indol-3-yl](4-methoxyphenyl)-methanone, Cayman Chemical, Cat#10006974) (60 μL, 10 mM) was added to O1; and 1-(2,4-dichlorophenyl)-7-[(4-fluorophenyl)methylene]-4,5,6,7-tetrahydro-N-1-piperidinyl-1H-indazole-3-carboxamide (60 μL, 10 mM) was added to N13. The control was serially diluted 1/3 by transferring and mixing 20 μl sample with 40 μL DMSO. This process resulted 11 doses per control, 10 mM to […].
Cells plated the day prior to the assay in clear bottom plates were viewed on an inverse microscope to ensure confluency in the range of 60-75%. […]

hCB1-CHO-K1 membranes = hCB1-CHO-K1 membranes (Homo sapiens, UniProt P21554); experiment: CB-1 membrane binding assay ([3H] CP 55,940 displacement)
Chain of hCB1-CHO-K1 membranes (P21554 whole entry): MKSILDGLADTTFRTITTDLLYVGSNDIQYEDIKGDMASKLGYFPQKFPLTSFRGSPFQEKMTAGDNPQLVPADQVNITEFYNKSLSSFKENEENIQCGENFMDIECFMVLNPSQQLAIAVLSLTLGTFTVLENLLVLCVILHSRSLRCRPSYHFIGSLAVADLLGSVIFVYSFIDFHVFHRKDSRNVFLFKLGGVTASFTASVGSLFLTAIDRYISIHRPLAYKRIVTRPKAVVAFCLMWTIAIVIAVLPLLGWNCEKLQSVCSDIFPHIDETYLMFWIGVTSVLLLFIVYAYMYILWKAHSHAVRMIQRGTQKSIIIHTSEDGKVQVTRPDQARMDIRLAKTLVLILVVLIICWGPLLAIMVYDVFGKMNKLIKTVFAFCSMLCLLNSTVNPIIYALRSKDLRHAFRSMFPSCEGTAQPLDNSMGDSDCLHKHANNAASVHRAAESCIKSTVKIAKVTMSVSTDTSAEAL

hCB2-HEK293 membranes = biological target: T2, hCB2-HEK293 membranes (Homo sapiens, UniProt P34972); experiment: CB-2 membrane binding assay ([3H] CP 55,940 displacement); settings: mean where tested more than once
T2 construct: expressed in transfected cells; host or cells: HEK293
T2 sequence (P34972 whole entry): as the sequence (P34972 whole entry) above

Male SD rats = experiment: Open field locomotor activity in rats (CNS activity), stereotypic counts; assay type: in vivo, rat; settings: 4 hour monitoring, vehicle 3022
Text: as §1, §2
Male SD rats were weighed and transferred to the Activity Chambers with access to water. After a 2-hr acclimation period, the rats were dosed with vehicle or test compound (@3 and 10 mg/kg). The Activity Chamber monitoring software program was initiated and automatically recorded rat activity in each chamber for a period of 4 hours. At the end of the 4 hour monitoring period, the software was stopped and the rats were removed from the activity chambers. The rats were anesthetized and blood samples were obtained via retro-orbital puncture to determine plasma concentration of compounds. The rats were immediately euthanized with CO2 and the brains removed, washed with PBS, frozen on dry ice and stored at −80° C. for receptor occupancy (RO) analysis. […]

[3] = Chronic DIO mouse: plasma and brain concentrations; assay type: in vivo; settings: for Brain concentration (Std Dev): DIO mice, second study
Protocol: Male 14-20-week old diet-induced obese mice were ordered from Taconic. Mice were started on a 60% fat diet (D12492, Research Diets, New Brunswick, N.J.) at 6 weeks of age. Mice were single-housed.
as §2
The test compound was formulated in 10% PEG400 and 10% solutol. DIO mice received vehicle, test compound (@1, 3 and 10 mg/kg) daily for 26 days. At the end of the experiment, the mice were euthanized and blood and tissues were collected.
Compound #44 was tested according to the procedure as described above, with results as listed in Table BIO-4A through Table BIO4-G, below.
In a second study, Compound #44 was tested according to the procedure as described above, with results as listed in Tables BIO-5A through 5G, below.

BRAIN Mean Conc. ± Std. Dev [1] | EC50 [2] [µM] | IC50 (hCB1-CHO-K1 membranes) [nM] | IC50 (hCB2-HEK293 membranes) [nM] | Stereotypic Counts (MEAN) (Male SD rats; n=8, first #44 row, dose not printed (presumably 3 mg/kg)) | Stereotypic Counts (MEAN) (Male SD rats; n=8, second #44 row, dose not printed (presumably 10 mg/kg)) | Plasma Concentration (Std Dev) ([3]; 1 mg/kg daily, 2 Hours Post Dose, Day 16, first study) | Brain concentration (Std Dev) ([3]; 0.3 mg/kg, Day 2, 2 hours post dose) | Brain concentration (Std Dev) ([3]; 0.3 mg/kg, Day 23, 2 hours post dose) | Brain concentration (Std Dev) ([3]; 1 mg/kg, Day 2, 2 hours post dose) | Brain concentration (Std Dev) ([3]; 3 mg/kg, Day 2, 2 hours post dose) | SMILES
BLOQ ± NA | > 10 |  |  |  |  |  |  |  |  |  | O=c1cc(Nc2ccc(C(F)(F)F)cc2)c2cc(C(c3ccc(Cl)cc3)c3ccc(Cl)cc3)ccc2[nH]1 [Compound #59, 6-(bis(4-chlorophenyl)methyl)-4-((4-(trifluoromethyl)phenyl)amino)quinolin-2(1H)-one]
 |  | 55.1 | > 5000 |  |  |  |  |  |  |  | Clc1ccc(C(c2ccc3nccc(/C=C/c4ccccc4)c3c2)c2nccs2)cc1 (stereo not shown) [Compound 511]
 |  | 1.2 | 53 | 3250 | 2850 | 431 (62) ng/mL | BLOQ* | BLOQ** | BLOQ* | BLOQ* | O=c1cc(NC2CCN(S(=O)(=O)C(F)(F)F)CC2)c2cc(C(c3ccc(Cl)cc3)c3ccc(Cl)cc3)ccc2[nH]1 [Compound #44, 6-(bis(4-chlorophenyl)methyl)-4-(1-(trifluoromethylsulfonyl)piperidin-4-ylamino)quinolin-2(1H)-one]
